Data on three molecules can be found in patent publication EP4000627A1, “TREATMENT OF ABDOMINAL AORTIC ANEURYSM AFTER ITS CLINICAL MANIFESTATION” (Fundacion Instituto De Investigacion Sanitaria Fundacion …, priority 2020, dated 2022).

Series [1] in a line: in vitro. As to the method: (§1) S1 and S1PS5 peptides derived from SOCS1 KIR domain (residues 53-68) conjugated with the cell penetrating sequences at N-terminal were synthesized by solid phase method following the Fmoc strategy, purified by preparative reverse phase-HPLC and lyophilized. Peptides were dissolved in 1% DMSO in saline solution (S1) and H2O (S1PS5), then filter-sterilized and stored at -80°C before use. For biodistribution studies, peptides were labelled with rhodamine or carboxytetramethylrhodamine (TAMRA) at N-terminal. For stability assays, peptides were incubated at 37°C with 25% foetal bovine serum (FBS). At selected times, 80 µL aliquots were taken, precipitated with 15% trichloroacetic acid, and further analysed by reverse phase HPLC with UV detector.

Series [2] concerns mouse VSMC. Briefly: cellular uptake of TAMRA-conjugated S1PS5 peptides (confocal microscopy). The series is classed as cell-based. To be noted: for degraded in cells: at 24 hours, TAMRA fluorescence intensity; for efficient uptake after: quantification of peptide internalization by TAMRA fluorescence intensity.
For series [3] the following is noted: 24 hours post-injection. On the procedure:
as §1

Where a SMILES comes first, the peptide text is derived from it. Bridges are numbered along the chain shown (N, C = ends). [ ]: non-standard residue; d: D form. The star is where a group is joined. 1Nal = N[C@@H](Cc1cccc2ccccc12)C(=O)O; Acm = CC(=O)NC*

Take `CC(=O)NCSC[C@H](NC(=O)[C@@H](NC(=O)[C@H](CC(=O)O)NC(=O)CNC(=O)CNC(=O)[C@H](CCC(N)=O)NC(=O)[C@@H]1CCCN1C(=O)[C@@H]1CCCN1C(=O)[C@H](CCCNC(=N)N)NC(=O)[C@H](CCCNC(=N)N)NC(=O)[C@H](CCCNC(=N)N)NC(=O)[C@H](CCC(N)=O)NC(=O)[C@H](CCCNC(=N)N)NC(=O)[C@H](CCCNC(=N)N)NC(=O)[C@H](CCCCN)NC(=O)[C@H](CCCCN)NC(=O)[C@H](CCCNC(=N)N)NC(=O)CN)[C@@H](C)O)C(=O)N[C@@H](CCCNC(=N)N)C(=O)N[C@@H](CCC(N)=O)C(=O)N[C@H](C(=O)N[C@@H](Cc1ccccc1)C(=O)N[C@@H](CCCNC(=N)N)C(=O)N[C@@H](CO)C(=O)N[C@@H](Cc1c[nH]cn1)C(=O)O)[C@@H](C)O` [linear S1PS5, GRKKRRQRRRPPQGGDTCAcmRQTFRSH] (H-GRKKRRQRRRPPQGGDTC(Acm)RQTFRSH-OH): the degradation rate in series [1] (25% FBS, 37°C, at 17-20 hours) amounted to 40%.

Turning to `CC(=O)NCSC[C@@H]1NC(=O)[C@H]([C@@H](C)O)NC(=O)[C@@H](NC(=O)CNC(=O)CNC(=O)[C@H](CCC(N)=O)NC(=O)[C@@H]2CCCN2C(=O)[C@@H]2CCCN2C(=O)[C@H](CCCNC(=N)N)NC(=O)[C@H](CCCNC(=N)N)NC(=O)[C@H](CCCNC(=N)N)NC(=O)[C@H](CCC(N)=O)NC(=O)[C@H](CCCNC(=N)N)NC(=O)[C@H](CCCNC(=N)N)NC(=O)[C@H](CCCCN)NC(=O)[C@H](CCCCN)NC(=O)[C@H](CCCNC(=N)N)NC(=O)CN)CC(=O)NCCCC[C@@H](C(=O)N[C@@H](Cc2c[nH]cn2)C(=O)O)NC(=O)[C@H](CCCNC(=N)N)NC(=O)[C@H](Cc2cccc3ccccc23)NC(=O)[C@H]([C@@H](C)O)NC(=O)[C@H](CCC(N)=O)NC(=O)[C@H](CCCNC(=N)N)NC1=O` [internal cyclic S1PS5 Nal1, GRKKRRQRRRPPQGGDTCAcmRQTNal1RKH] (H-GRKKRRQRRRPPQGGDTC(Acm)RQT[1Nal]RKH-OH; lactam 16-24), in series [2], the degraded in cells is listed as 40% and the efficient uptake after is approximately 2 h. In series [1] (25% foetal bovine serum), this molecule displayed a metabolised at 20 h of approximately 20% and a fraction remaining at 42 h of approximately 40%. Moreover, the “localization in aortic tissue (confocal analysis)” value in series [3] is recorded as “detected”.

Regarding `CC(=O)NCSC[C@@H]1NC(=O)[C@H]([C@@H](C)O)NC(=O)[C@@H](NC(=O)CNC(=O)CNC(=O)[C@H](CCC(N)=O)NC(=O)[C@@H]2CCCN2C(=O)[C@@H]2CCCN2C(=O)[C@H](CCCNC(=N)N)NC(=O)[C@H](CCCNC(=N)N)NC(=O)[C@H](CCCNC(=N)N)NC(=O)[C@H](CCC(N)=O)NC(=O)[C@H](CCCNC(=N)N)NC(=O)[C@H](CCCNC(=N)N)NC(=O)[C@H](CCCCN)NC(=O)[C@H](CCCCN)NC(=O)[C@H](CCCNC(=N)N)NC(=O)CN)CC(=O)NCCCC[C@@H](C(=O)N[C@@H](Cc2c[nH]cn2)C(=O)O)NC(=O)[C@H](CCCNC(=N)N)NC(=O)[C@H](Cc2ccccc2)NC(=O)[C@H]([C@@H](C)O)NC(=O)[C@H](CCC(N)=O)NC(=O)[C@H](CCCNC(=N)N)NC1=O` [internal cyclic S1PS5, GRKKRRQRRRPPQGGDTCAcmRQTFRKH] (H-GRKKRRQRRRPPQGGDTC(Acm)RQTFRKH-OH; lactam 16-24), in series [2], the degraded in cells entry is given as “almost completely degraded” and the efficient uptake after is approximately 2 h. In addition, the metabolised at 20 h in series [1] (25% foetal bovine serum) is approximately 40%.
